In ChEMBL document CHEMBL1201862, “PubChem BioAssay data set” (2004):
Values joined by “and” are separate entries in the source; they are usually repeats but may differ in a detail not shown here. Identical values can stand only once.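 Results reflect a 48-hour exposure of cells in 96-well plates to compound at five concentrations. At the GI50, growth is halved.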 Active and inactive are the calls of the source. No stated cut-off is given here; in the data, active = GI50 up to about 1.1 µM and inactive = higher.

Columns and labels:
Assay in all cases: inhibition of tumour cell growth, NCI panel, 48 h
IGROV-1 = tested on: IGROV-1
UACC-62 = tested on: UACC-62
A498 = tested on: A498
SK-MEL-28 = tested on: SK-MEL-28
M14 = tested on: M14
HT-29 = tested on: HT-29
SN12C = tested on: SN12C
KM12 = tested on: KM12
LOX IMVI = tested on: LOX IMVI
U-251 = tested on: U-251
NCI-H460 = tested on: NCI-H460
SF-268 = tested on: SF-268
SF-539 = tested on: SF-539
NCI-H226 = tested on: NCI-H226
HL-60 = tested on: HL-60
HOP-92 = tested on: HOP-92
MDA-MB-435 = tested on: MDA-MB-435
BT-549 = tested on: BT-549
MDA-N = tested on: MDA-N

Row | SMILES | GI50 (IGROV-1) | GI50 (UACC-62) | GI50 (A498) | GI50 (SK-MEL-28) | GI50 (M14) | GI50 (HT-29) | GI50 (SN12C) | GI50 (KM12) | GI50 (LOX IMVI) | GI50 (U-251) | GI50 (NCI-H460) | GI50 (SF-268) | GI50 (SF-539) | GI50 (NCI-H226) | GI50 (HL-60) | GI50 (HOP-92) | GI50 (MDA-MB-435) | GI50 (BT-549) | GI50 (MDA-N)
1 | CC(C)OC(=O)C1=C(O)c2ccccc2S(=O)(=O)N1 | > 100 µM (inactive) | > 100 µM (inactive) | > 100 µM (inactive) | > 100 µM (inactive) | > 100 µM (inactive) | > 100 µM (inactive) | > 100 µM (inactive) | > 100 µM (inactive) | > 100 µM (inactive) | > 100 µM (inactive) | > 100 µM (inactive) | > 100 µM (inactive) | > 100 µM (inactive) | > 100 µM (inactive) | – | – | – | – | –
2 | CC(=O)N1C/C(=C\c2ccccc2)C(=O)/C(=C/c2ccccc2)C1 | 17.6 µM (inactive) | 14.4 µM (inactive) | 16.8 µM (inactive) | 13.2 µM (inactive) | 6.98 µM (inactive) | 3.04 µM (inactive) | 14.4 µM (inactive) | 3.65 µM (inactive) | 3.43 µM (inactive) | 15.6 µM (inactive) | 17.4 µM (inactive) | 23.2 µM (inactive) | 19.3 µM (inactive) | 17.4 µM (inactive) | 1.68 µM (inactive) | – | – | – | –
3 | CCOc1ccccc1NC(=O)C(=O)CC(=O)C1=C(C)Nc2ccccc2S1 | > 100 µM (inactive) | > 100 µM (inactive) | > 100 µM (inactive) | > 100 µM (inactive) | > 100 µM (inactive) | > 100 µM (inactive) | > 100 µM (inactive) | > 100 µM (inactive) | > 100 µM (inactive) | > 100 µM (inactive) | > 100 µM (inactive) | > 100 µM (inactive) | > 100 µM (inactive) | > 100 µM (inactive) | > 21.1 µM (inactive) | > 100 µM (inactive) | – | – | –
4 | CCOC(=O)C(Cc1cn(S(=O)(=O)c2ccc(C)cc2)cn1)P(=O)(OCC)OCC (stereo not given) | > 100 µM (inactive) | > 100 µM (inactive) | – | > 100 µM (inactive) | > 100 µM (inactive) | > 100 µM (inactive) | > 100 µM (inactive) | > 100 µM (inactive) | > 100 µM (inactive) | > 100 µM (inactive) | > 100 µM (inactive) | > 100 µM (inactive) | > 100 µM (inactive) | > 100 µM (inactive) | > 100 µM (inactive) | – | > 100 µM (inactive) | > 100 µM (inactive) | > 100 µM (inactive)
5 | O=C1c2n[nH]nc2C(=O)c2n[nH]nc21 | > 66.4 µM (inactive) | > 100 µM (inactive) | > 100 µM (inactive) | > 100 µM (inactive) | > 100 µM (inactive) | > 100 µM (inactive) | > 100 µM (inactive) | > 100 µM (inactive) | > 100 µM (inactive) | > 100 µM (inactive) | > 100 µM (inactive) | > 100 µM (inactive) | > 100 µM (inactive) | > 39.2 µM (inactive) | > 100 µM (inactive) | > 100 µM (inactive) | > 100 µM (inactive) | – | > 100 µM (inactive)
6 | CN(NC(=O)/C(=C\c1ccco1)NC(=O)c1ccccc1)c1cn[nH]c(=O)c1Cl | 49.3 µM (inactive) | > 100 µM (inactive) | – | 36.6 µM (inactive) | 66.2 µM (inactive) | 58.6 µM (inactive) | 53.2 µM (inactive) | 40.6 µM (inactive) | 23.2 µM (inactive) | 79.4 µM (inactive) | > 100 µM (inactive) | > 100 µM (inactive) | 24.9 µM (inactive) | 45.6 µM (inactive) | – | > 100 µM (inactive) | > 100 µM (inactive) | – | –
7 | O=C1/C(=N/N=C(c2ccccc2)c2ccccc2)c2ccccc2-c2ccccc21 | 73.1 µM (inactive) | 55.2 µM (inactive) | – | > 100 µM (inactive) | > 100 µM (inactive) | > 100 µM (inactive) | 71.1 µM (inactive) | > 100 µM (inactive) | 56.4 µM (inactive) | 85.7 µM (inactive) | > 100 µM (inactive) | > 100 µM (inactive) | > 100 µM (inactive) | 38.5 µM (inactive) | > 100 µM (inactive) | 25.2 µM (inactive) | > 100 µM (inactive) | 65 µM (inactive) | –
8 | CN(C(=O)C1=CCCCCC1)c1ccccc1I | 32.8 µM (inactive) | 33.2 µM (inactive) | 0.201 µM (active) | 37.5 µM (inactive) | 31.6 µM (inactive) | – | 49.1 µM (inactive) | 19.1 µM (inactive) | 28.9 µM (inactive) | 44.9 µM (inactive) | 32 µM (inactive) | 24.3 µM (inactive) | – | – | 13.7 µM (inactive) | > 10 µM (inactive) | 40.2 µM (inactive) | – | 35.5 µM (inactive)
9 | CC1(C)CC(=O)C2(CC(CSc3ccccc3)C(CS(=O)(=O)c3ccccc3)C2)C(=O)C1 (stereo not given) | > 100 µM (inactive) | > 100 µM (inactive) | > 100 µM (inactive) | > 100 µM (inactive) | > 100 µM (inactive) | 78.3 µM (inactive) | > 100 µM (inactive) | > 100 µM (inactive) | > 100 µM (inactive) | > 100 µM (inactive) | – | > 100 µM (inactive) | > 100 µM (inactive) | > 100 µM (inactive) | – | > 100 µM (inactive) | > 100 µM (inactive) | > 100 µM (inactive) | –
10 | O=C1OC[C@@H]2Cc3c([nH]c4ccccc34)[C@@H](c3ccc(O)cc3)N12 | 24.8 µM (inactive) | 29.9 µM (inactive) | 41.7 µM (inactive) | 54.6 µM (inactive) | 23.1 µM (inactive) | 34.9 µM (inactive) | 41.1 µM (inactive) | 22.8 µM (inactive) | 21 µM (inactive) | 39.2 µM (inactive) | 28.7 µM (inactive) | 42.6 µM (inactive) | 24.4 µM (inactive) | 29 µM (inactive) | 45 µM (inactive) | 96.8 µM (inactive) | 24.7 µM (inactive) | – | 33 µM (inactive)
11 | O=C(CSCC(=O)N/N=C/c1ccccc1)N/N=C\c1ccccc1 | > 100 µM (inactive) | > 100 µM (inactive) | – | > 100 µM (inactive) | > 100 µM (inactive) | > 100 µM (inactive) | > 100 µM (inactive) | 16.7 µM (inactive) | > 100 µM (inactive) | > 100 µM (inactive) | > 100 µM (inactive) | > 100 µM (inactive) | 81.3 µM (inactive) | > 100 µM (inactive) | – | > 100 µM (inactive) | > 100 µM (inactive) | 2.2 µM (inactive) | –
12 | Cc1cccc(N/C(Sc2ccccc2)=C(/C(Cl)=C(Cl)Cl)[N+](=O)[O-])c1 | – | 20.3 µM (inactive) | 16.8 µM (inactive) | 17.4 µM (inactive) | 18.8 µM (inactive) | 17.6 µM (inactive) | 15.3 µM (inactive) | 23.1 µM (inactive) | – | 15.4 µM (inactive) | 35 µM (inactive) | 17.8 µM (inactive) | 16.4 µM (inactive) | 16.6 µM (inactive) | – | – | 17.7 µM (inactive) | 20.4 µM (inactive) | 19.4 µM (inactive)
13 | CC(=O)OC1COC(n2c(N)c(C#N)c(C)c(C#N)c2=S)C(OC(C)=O)C1OC(C)=O (stereo not given) | > 100 µM (inactive) | 66.4 µM (inactive) | > 100 µM (inactive) | > 100 µM (inactive) | > 100 µM (inactive) | > 100 µM (inactive) | > 100 µM (inactive) | > 100 µM (inactive) | > 100 µM (inactive) | – | > 100 µM (inactive) | > 100 µM (inactive) and 85.5 µM (inactive) | > 100 µM (inactive) | > 100 µM (inactive) | – | – | > 100 µM (inactive) | > 100 µM (inactive) | > 100 µM (inactive)
14 | O=C(O)C1CC2C3CCC2C1C3=O (stereo not given) | > 100 µM (inactive) | > 100 µM (inactive) | > 100 µM (inactive) | > 100 µM (inactive) | > 100 µM (inactive) | > 100 µM (inactive) | > 100 µM (inactive) | > 100 µM (inactive) | > 100 µM (inactive) | > 100 µM (inactive) | > 100 µM (inactive) | > 100 µM (inactive) | > 100 µM (inactive) | > 100 µM (inactive) | > 100 µM (inactive) | > 100 µM (inactive) | > 100 µM (inactive) | – | > 100 µM (inactive)
15 | CCC12CCCN(Cc3ccccc3)C1c1c(n(C)c3ccccc13)CC2 (stereo not given) | 159 µM (inactive) | 230 µM (inactive) | – | > 253 µM (inactive) | – | 167 µM (inactive) | 149 µM (inactive) | 86.1 µM (inactive) | 236 µM (inactive) | 247 µM (inactive) | > 253 µM (inactive) | 199 µM (inactive) | > 253 µM (inactive) | > 253 µM (inactive) | 106 µM (inactive) | 110 µM (inactive) | – | – | –
16 | FC(F)(F)C1(C(F)(F)F)C2CCC3(CC(F)(F)C(F)(F)S3)C1C2 (stereo not given) | 87.7 µM (inactive) | > 100 µM (inactive) | 57 µM (inactive) | > 100 µM (inactive) | > 100 µM (inactive) | 29 µM (inactive) | > 100 µM (inactive) | 76.6 µM (inactive) | 25.8 µM (inactive) | > 100 µM (inactive) | 41.3 µM (inactive) | 44.6 µM (inactive) | > 100 µM (inactive) | 64.7 µM (inactive) | 27.9 µM (inactive) | – | 86.7 µM (inactive) | – | > 100 µM (inactive)
17 | COC(=O)[C@]12CC[C@H]3CN(C(=O)OCc4ccccc4)[C@H]([C@H]31)[C@H](c1ccco1)N2 | 60.4 µM (inactive) | 23.7 µM (inactive) | 0.0226 µM (active) | 51.3 µM (inactive) | 38 µM (inactive) | 81.3 µM (inactive) | 46.2 µM (inactive) | 26.4 µM (inactive) | 53.2 µM (inactive) | 84.7 µM (inactive) | 45.6 µM (inactive) | 57 µM (inactive) | > 100 µM (inactive) | 69.7 µM (inactive) | 28.8 µM (inactive) | 29.4 µM (inactive) | 19.4 µM (inactive) | – | 30.8 µM (inactive)
